Laboratory results published in PMC6968685 (Journal of Enzyme Inhibition and Medicinal Chemistry, 2020).

Legend:
[1] = tested on: T. brucei brucei AnTat 1.9; test: In vitro antitrypanosomal activity, Alamar Blue assay; assay type: cell-based; details: Trypanosoma brucei; slender bloodstream trypomastigotes, AnTat 1.9 strain; read-out: Trypanosoma brucei brucei IC50 values, Trypanos Antat 1.9
How it was run: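 Viability read-out: resazurin (Alamar Blue) fluorescence, 530 nm excitation/590 nm emission, after 5 h dye exposure following 69 h compound incubation at 37 °C, 5% CO2, 2000 parasites per well, doses in duplicate. IC50 values fitted nonlinearly, three independent runs.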

[2] = tested on: human telomeric sequence F21T G-quadruplex; test: FRET melting experiments, F21T; assay type: binding; details: 2 μM compound, 0.2 μM oligonucleotide, K+ conditions
Description: (§1) These were performed with dual-labelled oligonucleotides mimicking the Plasmodium telomeric sequences FPf1T [FAM-5′(GGGTTTA)3-GGG3′-TAMRA] and FPf8T [FAM-5′ (GGGTTCA)3GGG3′-TAMRA], the Trypanosoma 9 and 11 chromosomic sequence FTrypBT (also named FEBR1T) [FAM-5′[…]3′-TAMRA], the human telomeric sequence F21T [FAM-(GGGTTA)3-GGG3′-TAMRA], and the human duplex sequence FdxT [FAM5′-[…]-hexaethyleneglycol-[…]3′-TAMRA][51]^,[52]. The oligonucleotides were pre-folded in 10 mM lithium cacodylate buffer (pH 7.2), with 10 mM KCl and 90 mM LiCl (K^+condition). The FAM emissions were recorded at 516 nm using a 492-nm excitation wavelength in the absence and presence of a single compound as a function of temperature (25–95 °C) in 96-well microplates by using a Stratagene MX3000P real-time PCR device at a rate of 1 °C·min^−1. Data were normalised between 0 and 1, and the required temperature for half-denaturation of oligonucleotides corresponding to the emission value of 0.5 was taken as the Tm. […] For each compound, three independent experiments were carried out.

[3] = tested on: P. falciparum CQ-resistant strain W2; test: In vitro antiplasmodial activity, SYBR Green I fluorescence-based method, strain W2; assay type: cell-based; details: Plasmodium falciparum; chloroquine-resistant strain W2; 48 h incubation; read-out: P. falciparum strains IC50 values, W2
How it was run: (§2)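 P. falciparum 3D7 and W2 cultured in human erythrocytes in RPMI with 0.5% Albumax I at 37 °C, exposed 48 h to compounds tested […]. Parasite DNA read by SYBR Green I fluorescence (ex 485/em 535 nm); IC50 by non-linear regression, mean of three independent experiments.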

[4] = tested on: P. falciparum CQ-sensitive strain 3D7; test: In vitro antiplasmodial activity, SYBR Green I fluorescence-based method, strain 3D7; assay type: cell-based; details: Plasmodium falciparum; chloroquine-sensitive strain 3D7; 48 h incubation; read-out: P. falciparum strains IC50 values, 3D7
How it was run: as §2

[5] = tested on: Plasmodium telomeric sequence FPf1T G-quadruplex; test: FRET melting experiments, FPf1T; assay type: binding, P. falciparum; details: 2 μM compound, 0.2 μM oligonucleotide, K+ conditions
Description: as §1

[6] = tested on: L. donovani (MHOM/IN/00/DEVI) promastigotes; test: In vitro antileishmanial activity, MTT assay on promastigotes; assay type: cell-based; details: Leishmania donovani, 72 h incubation, ≥10 = no activity noted at the highest concentration tested
How it was run: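 Log-phase L. donovani MHOM/IN/00/DEVI promastigotes (10^6/ml, Schneider's + 20% FCS) were exposed to graded compound concentrations (DMSO <0.5% v/v) for 72 h at 27 °C, in duplicate. Growth measured by MTT reduction (4 h, A570 nm); IC50 obtained by regression.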

[7] = Cytotoxicity evaluation, MTT; assay type: cell-based, human; details: human
How it was run: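 HepG2 hepatocarcinoma cells exposed to compound in duplicate, then viability measured by MTT reduction (0.5 mg/ml), formazan dissolved in DMSO and read at 570 nm against 630 nm. Viability expressed as percent of untreated cells; CC50 taken from dose-response curve, doxorubicin as positive control.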

[8] = tested on: Trypanosoma 9 and 11 chromosomic sequence FTrypBT (FEBR1T) G-quadruplex; test: FRET melting experiments, FtrypBT; assay type: binding, T. brucei brucei; details: 2 μM compound, 0.2 μM oligonucleotide, K+ conditions
Description: as §1

[9] = tested on: human duplex sequence FdxT; test: FRET melting experiments, FdxT duplex control; assay type: binding; details: 2 μM compound, 0.2 μM oligonucleotide, K+ conditions
Description: as §1

[10] = tested on: Plasmodium telomeric sequence FPf8T G-quadruplex; test: FRET melting experiments, FPf8T; assay type: binding, P. falciparum; details: 2 μM compound, 0.2 μM oligonucleotide, K+ conditions
Description: as §1

Row | SMILES | IC50 [1] | ΔTm F21T [2] | IC50 [3] | IC50 [4] | ΔTm FPf1T [5] | IC50 [6] | CC50 at 72 h [7] | ΔTm FtrypBT [8] | ΔTm FdxT [9] | ΔTm FPf8T [10]
1 | CN1CCN(CCCNCc2ccc(-c3cc(-c4ccc(CNCCCN5CCN(C)CC5)cc4)c4ccccc4n3)cc2)CC1 [Compound 1e, 2,4-Bis{4-[(3–(4-methylpiperazin-1-yl)propyl)aminomethyl]phenyl}quinoline] | 1780 ± 89 nM | 11.3 ± 1.1 °C | 1290 ± 63 nM | 470 ± 60 nM | 9.4 ± 0.6 °C | ≥ 10000 nM | 11300 ± 500 nM | 7.4 ± 0.1 °C | 0.1 ± 0.1 °C | 9.2 ± 0.5 °C
2 | COc1ccc2c(-c3ccc(CNCCCCN(C)C)cc3)nc(-c3ccc(CNCCCCN(C)C)cc3)cc2c1 [Compound 2i, 6-Methoxy-1,3-bis{4-[(4-dimethylaminobutyl)aminomethyl]phenyl}isoquinoline] | 640 ± 323 nM | 23.2 ± 0.6 °C | 2400 ± 490 nM | 8460 ± 660 nM | 12.8 ± 1.3 °C | ≥ 10000 nM | 10800 ± 800 nM | 8.4 ± 0.3 °C | 0.9 ± 0.1 °C | 12.9 ± 1.0 °C
3 | COc1ccc2cc(-c3ccc(CNCCCN(C)C)cc3)nc(-c3ccc(CNCCCN(C)C)cc3)c2c1 [Compound 2f, 7-Methoxy-1,3-bis{4-[(3-dimethylaminopropyl)aminomethyl]phenyl}isoquinoline] | 520 ± 72 nM | 15.8 ± 0.1 °C | 4760 ± 660 nM | 1470 ± 240 nM | 20.3 ± 1.1 °C | ≥ 10000 nM | 2120 ± 200 nM | 16.9 ± 1.1 °C | 0.8 ± 0.3 °C | 18.5 ± 0.5 °C
4 | CN1CCN(CCNCc2ccc(-c3cc(-c4ccc(CNCCN5CCN(C)CC5)cc4)c4ccccc4n3)cc2)CC1 [Compound 1f, 2,4-Bis{4-[(2–(4-methylpiperazin-1-yl)ethyl)aminomethyl]phenyl}quinoline] | 990 ± 132 nM | 9.5 ± 2.9 °C | 130 ± 24 nM | 2420 ± 270 nM | 10.7 ± 1.0 °C | ≥ 10000 nM | 4090 ± 300 nM | 9.4 ± 0.6 °C | −0.1 ± 0.2 °C | 11.0 ± 0.5 °C
5 | COc1ccc2c(-c3ccc(CNCCCN(C)C)cc3)nc(-c3ccc(CNCCCN(C)C)cc3)cc2c1 [Compound 2j, 6-Methoxy-1,3-bis{4-[(3-dimethylaminopropyl)aminomethyl]phenyl}isoquinoline] | 590 ± 131 nM | 13.9 ± 0.1 °C | 5090 ± 760 nM | 7210 ± 590 nM | 15.3 ± 0.7 °C | ≥ 10000 nM | 2160 ± 200 nM | 12.2 ± 1.1 °C | 0.5 ± 0.3 °C | 15.0 ± 0.6 °C
6 | COc1ccc2nc(-c3ccc(CNCCCN(C)C)cc3)nc(-c3ccc(CNCCCN(C)C)cc3)c2c1 [Compound 3i, 6-Methoxy-2,4-bis{4-[(3-dimethylaminopropyl)aminomethyl]phenyl}quinazoline] | 440 ± 84 nM | 12.6 ± 0.0 °C | 4340 ± 740 nM | 4050 ± 950 nM | 16.0 ± 0.3 °C | ≥ 10000 nM | 1930 ± 100 nM | 12.7 ± 0.7 °C | 0.3 ± 0.3 °C | 15.6 ± 0.3 °C
7 | COc1ccc2nc(-c3ccc(CNCCCCN(C)C)cc3)nc(-c3ccc(CNCCCCN(C)C)cc3)c2c1 [Compound 3h, 6-Methoxy-2,4-bis{4-[(4-dimethylaminobutyl)aminomethyl]phenyl}quinazoline] | 270 ± 35 nM | 16.4 ± 1.3 °C | 3680 ± 500 nM | 3840 ± 380 nM | 19.8 ± 0.6 °C | ≥ 10000 nM | 11700 ± 1200 nM | 15.7 ± 0.3 °C | 2.0 ± 0.2 °C | 18.8 ± 0.7 °C
